Source: patent US9682928B2 (NeuroPro Therapeutics, Inc., priority 2009, dated 2017)
Values joined by “and” are separate entries in the source; they are usually repeats but may differ in a detail not shown here. Equal entries are not always repeated.

Key:
rats [1] = assay: Contextual fear conditioning in rats; assay type: in vivo, rat; settings: I.V.; furosemide 100 mg/kg, bumetanide 50 mg/kg
Procedure: Contextual fear conditioning involves pairing an aversive event, in this case moderate foot shock, with a distinctive environment. The strength of the fear memory is assessed using freezing, a species-typical defensive reaction in rats, marked by complete immobility, except for breathing. […] However, if they are allowed to explore the distinctive environment sometime before the immediate shock, they show intense anxiety and fear when placed back into the same environment. By procedurally dividing contextual fear conditioning into two phases, the effects of treatments on memory for the context (specifically a hippocampus based process) from learning the association between context and shock or experiencing the aversiveness of the shock (which depend upon emotional response circuitry including amygdala) were separately studied. […] The experiment employed 24 rats. […] Each rat was again placed into the same environment for 8 min during which time freezing was measured, as an index of Pavlovian conditioned fear. […] Measurement of freezing was accomplished through an overhead video camera connected to the microcomputer and was automatically scored using a specialty piece of software, FreezeFrame (OER Inc., Reston, Va.) Total freezing time was analyzed in a one-way analysis of variance (ANOVA) test, with drug dose as the […] factor.

mouse = settings: literature data; cited from earlier work
rats [2] = assay: Fear potentiated startle (FPS) test in rats; assay type: in vivo, rat; settings: i.v.; furosemide 100 mg/kg, bumetanide 70 mg/kg
Procedure: FPS is a commonly used assessment of therapeutic value of anxiolytic compounds in the rat. Rats received a 30 min period of habituation to the FPS apparatus. 24-hr later baseline startle amplitudes were collected. The rats will be divided into two matched groups based on baseline startle amplitudes. Following baseline startle amplitude collection 20 light/shock pairings were delivered on 2 sessions over 2 consecutive days (i.e., 10 light/shock pairings per day). On the final day, one group of rats received an injection (i.v.) of a bumetanide analog and the other group received vehicle only. Immediately following injections, startle amplitudes were assessed during startle alone trials and startle plus fear (light followed by startle) trials. Fear potentiated startle (light+startle amplitudes minus startle alone amplitudes) was compared between the treatment groups.
Animals were trained and tested in four identical stabilimeter devices (Med-Associates). Briefly, each rat was placed in a small Plexiglas cylinder. The floor of each stabilimeter consists of four 6-mm-diameter stainless steel bars spaced 18 mm apart through which shock can be delivered. Cylinder movements result in displacement of an accelerometer where the resultant voltage is proportional to the velocity of the cage displacement. Startle amplitude is defined as the maximum accelerometer voltage that occurs during the first 0.25 sec after the startle stimulus is delivered. The analog output of the accelerometer is amplified, digitized on a scale of 0-4096 units and stored on a microcomputer. Each stabilimeter is enclosed in a ventilated, light-, and sound-attenuating box. All sound level measurements were made with a Precision Sound Level Meter. The noise of a ventilating fan attached to a sidewall of each wooden box produces an overall background noise level of 64 dB. The startle stimulus is a 50 ms burst of white noise (5 ms rise-decay time) generated by a white noise generator. The visual conditioned stimulus used was illumination of a light bulb adjacent to the white noise source. The unconditioned stimulus was a 0.6 mA foot shock with duration of 0.5 sec, generated by four constant-current shockers located outside the chamber. The presentation and sequencing of all stimuli were under the control of the microcomputer.
FPS procedures consisted of 5 days of testing; during days 1 and 2 baseline startle responses were collected, days 3 and 4 light/shock pairings were delivered, day 5-testing for fear potentiated startle was conducted.
Matching. On the first two days all rats were placed in the Plexiglas cylinders and 3 min later presented with 30 startle stimuli at a 30 sec interstimulus interval. An intensity of 105 dB was used. […]

NKCC1 = target: T1, NKCC1 (Homo sapiens, UniProt P55011); assay: NKCC1 Rb+ influx assay in human adult skin fibroblasts; assay type: cell-based
T1 construct: endogenous in cells; host or cells: human adult skin fibroblasts (primary culture)
Procedure: The protocol may be done in accordance with Panet and Alan The Journal of Cell Biology, Volume 114, Number 2, July 1991 337-342. Human adult skin fibroblasts were seeded at 3 concentrations: 3000/5000/10 000 on 96 well culture plates with DMEM supplemented with 10% FCS and 4 mM glutamine (37° C., CO2). Medium was replaced with DMEM supplemented with 0.2% FCS, 4 mM glutamine and 20 mM HEPES (37° C., CO2). The NKCC assay may be performed according the standard operating procedure as described in Chassande, et al. (1988) “The Na+/K+/CI^− cotransport in C6 glioma cells.” Eur. J. Biochem. 171: 425-433.
This allows for the administration of the compounds described herein described herein without unwanted diuretic side effects.

in vivo [3] = settings: dog
[4] = system: GABAA-IPSCs, hippocampal slices (CA1 pyramidal cell layer); assay: In vitro hippocampal slice recordings of miniature and spontaneous IPSCs; assay type: cell-based; settings: two experiments
Procedure: Ion flux in neuronal cells was measured using standard techniques. Kandel and Schwartz Principles of Neural Science 2nd Edition (1985), see, e.g., pages 128-131. Recording was performed in vitro in hippocampal slices (CA1 pyramidal cell layer). For recording GABAA-IPSCs, glutamatergic and GABAB transmission was blocked by adding DNOX (50 μM), AP-5 (50 μM), and SCH50911 ([…]) into the medium. The intracellular solution comprised CsCl and OX314.

in vivo [5] = settings: rat

T1 sequence (P55011 whole entry): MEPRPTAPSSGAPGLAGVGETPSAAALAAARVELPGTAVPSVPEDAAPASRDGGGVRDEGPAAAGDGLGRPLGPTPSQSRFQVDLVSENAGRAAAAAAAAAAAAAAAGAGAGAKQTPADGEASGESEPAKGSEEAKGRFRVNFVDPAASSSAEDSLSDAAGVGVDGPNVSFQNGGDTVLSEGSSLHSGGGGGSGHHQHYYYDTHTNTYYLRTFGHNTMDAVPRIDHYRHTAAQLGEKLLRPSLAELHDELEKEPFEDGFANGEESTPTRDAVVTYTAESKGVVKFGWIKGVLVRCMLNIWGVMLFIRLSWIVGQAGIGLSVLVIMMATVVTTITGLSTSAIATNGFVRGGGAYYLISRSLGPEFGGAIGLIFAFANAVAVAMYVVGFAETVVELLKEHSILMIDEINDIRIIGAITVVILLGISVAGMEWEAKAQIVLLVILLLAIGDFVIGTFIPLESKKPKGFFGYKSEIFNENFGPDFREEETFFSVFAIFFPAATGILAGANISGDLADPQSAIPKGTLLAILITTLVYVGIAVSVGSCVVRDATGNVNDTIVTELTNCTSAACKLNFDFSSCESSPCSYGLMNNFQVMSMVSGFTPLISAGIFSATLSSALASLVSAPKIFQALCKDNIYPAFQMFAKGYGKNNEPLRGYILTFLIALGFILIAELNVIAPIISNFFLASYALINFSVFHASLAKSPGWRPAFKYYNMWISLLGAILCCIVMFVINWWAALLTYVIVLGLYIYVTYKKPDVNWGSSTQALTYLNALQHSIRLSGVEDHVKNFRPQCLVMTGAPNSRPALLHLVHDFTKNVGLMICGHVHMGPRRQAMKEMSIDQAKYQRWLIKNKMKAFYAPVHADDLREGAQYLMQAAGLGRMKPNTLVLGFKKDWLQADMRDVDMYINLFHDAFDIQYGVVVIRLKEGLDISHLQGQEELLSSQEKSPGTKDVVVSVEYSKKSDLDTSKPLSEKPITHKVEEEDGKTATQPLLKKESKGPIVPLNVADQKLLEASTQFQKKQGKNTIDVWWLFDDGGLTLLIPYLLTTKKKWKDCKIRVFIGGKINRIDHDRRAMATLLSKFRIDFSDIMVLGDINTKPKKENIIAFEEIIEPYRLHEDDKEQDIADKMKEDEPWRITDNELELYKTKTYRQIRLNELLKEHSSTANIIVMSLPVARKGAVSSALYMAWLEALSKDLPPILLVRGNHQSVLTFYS

SMILES: CCCCNc1cc(C(=O)O)cc(S(N)(=O)=O)c1Oc1ccccc1 [Bumetanide, reference compound]
- Freezing vs vehicle alone (rats [1]): significantly less freezing
- Activity in early phase formalin paw test (mouse): has little
- Activity in late phase formalin paw test (mouse): is active in late phase
- Difference score on the test day vs vehicle alone (rats [2]): statistically significantly lower difference score
- Difference score one week after treatment vs vehicle alone (rats [2]): higher difference score

SMILES: CCCCN(CCCC)c1cc(C(=O)O)cc(S(N)(=O)=O)c1Oc1ccccc1 [NTP-2014, 3-Aminosulfonyl-5-N,N-dibutylamino-4-phenoxybenzoic acid]
- Inhibition of NKCC1 in the presence of a co-transporter activating mitogen (FGF) (NKCC1): did not inhibit
- Inhibition of NKCC1 chloride transport (NKCC1; primary cell cultures): no inhibition
- NOAEL at 14 day (in vivo [3]): 4.5 mg/kg
- Mean interval between inhibitory events, spontaneous IPSCs, with NTP-2014 ([4]; from 257 ms (FIG. 34A) and from 535 ms (FIG. 34B)): 205 ms and 401 ms
- Mean interval between inhibitory events, miniature IPSCs, with NTP-2014 ([4]; from 315 ms (FIG. 35A) and from 361 ms (FIG. 35B)): 162 ms and 160 ms
- NOAEL at 14 day (in vivo [5]): 500 mg/kg
